The IC50 is the concentration that inhibits the measured activity by half. As a reminder, the Ki is the dissociation constant of the complex between target and ligand, obtained from inhibition or displacement.

Assay type in all cases: functional
One assay deals with CHO-K1. The assay can be described thus: Counterscreen for antagonists of the orexin 1 receptor (OX1R; HCRTR1): Homogeneous time resolved fluorescence (HTRF)-based cell-based dose response assay to identify antagonists of the parental CHO-K1 cell line. [Related pubchem assays (depositor defined):AID434989, AID435008, AID463079, AID485270, AID492963, AID492964, AID492965, AID493232, AID504699, AID504701]. The note with it: Cricetulus griseus.

In assay [1] the target is T1, Orexin/Hypocretin receptor type 1 (Homo sapiens, UniProt O43613).
T1 sequence (O43613 whole entry): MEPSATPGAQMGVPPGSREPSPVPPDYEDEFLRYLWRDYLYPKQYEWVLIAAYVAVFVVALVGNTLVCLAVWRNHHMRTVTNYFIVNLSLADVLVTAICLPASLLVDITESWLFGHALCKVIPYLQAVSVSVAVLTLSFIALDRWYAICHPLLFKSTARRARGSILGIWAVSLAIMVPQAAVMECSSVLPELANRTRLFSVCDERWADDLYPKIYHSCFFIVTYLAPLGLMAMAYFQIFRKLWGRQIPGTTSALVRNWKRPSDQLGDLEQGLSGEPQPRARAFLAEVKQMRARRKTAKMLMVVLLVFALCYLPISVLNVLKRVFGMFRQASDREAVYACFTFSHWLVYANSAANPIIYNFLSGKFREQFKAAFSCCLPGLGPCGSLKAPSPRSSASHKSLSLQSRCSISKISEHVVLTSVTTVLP
Put plainly: Fluorescence-based cell-based high throughput dose response assay for antagonists of the orexin 1 receptor (OX1R; HCRTR1). [Related pubchem assays (depositor defined):AID434989, AID435008, AID463079, AID485270, AID492963, AID492964, AID492965, AID493232, AID504717, AID504718].

Assay [2] concerns the target T2, Orexin receptor type 2 (Homo sapiens, UniProt O43614).
T2 sequence (O43614 whole entry): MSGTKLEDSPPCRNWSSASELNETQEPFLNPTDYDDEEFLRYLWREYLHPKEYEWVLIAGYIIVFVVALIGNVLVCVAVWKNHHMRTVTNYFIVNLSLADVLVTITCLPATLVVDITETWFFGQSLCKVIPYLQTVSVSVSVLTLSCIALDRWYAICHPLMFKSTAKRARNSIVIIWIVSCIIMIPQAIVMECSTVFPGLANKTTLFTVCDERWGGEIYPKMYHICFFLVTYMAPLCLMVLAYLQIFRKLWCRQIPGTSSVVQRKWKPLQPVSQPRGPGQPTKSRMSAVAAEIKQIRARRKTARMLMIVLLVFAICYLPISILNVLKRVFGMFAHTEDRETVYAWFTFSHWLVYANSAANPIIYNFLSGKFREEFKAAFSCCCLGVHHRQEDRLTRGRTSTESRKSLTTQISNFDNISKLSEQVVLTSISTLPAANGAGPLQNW
The assay can be described thus: Counterscreen assay for antagonists of the orexin 1 receptor (OX1R; HCRTR1): Fluorescence-based cell-based dose response assay for antagonists of the orexin 2 receptor (OX2R; HCRTR2), run by assay provider. On the technique in general: Counterscreens check selectivity or assay interference.

Assay [3] deals with T2, Orexin receptor type 2. Put plainly: Counterscreen assay for antagonists of the orexin 1 receptor (OX1R; HCRTR1): Homogeneous Time Resolved Fluorescence (HTRF)-based cell-based dose response assay for antagonists of the orexin 2 receptor (OX2R; HCRTR2), run by assay provider.
Assay [4] can be described thus: Counterscreen for antagonists of the orexin 1 receptor (OX1R; HCRTR1): Fluorescence-based cell-based high throughput dose response assay to identify antagonists of the parental CHO cell line. [Related pubchem assays (depositor defined):AID434989, AID435008, AID463079, AID485270, AID492963, AID492964, AID492965, AID493232, AID504699, AID504701].
Assay [5] concerns the target T1, Orexin/Hypocretin receptor type 1. The assay can be described thus: Homogeneous Time Resolved Fluorescence (HTRF)-based cell-based high throughput dose response assay for antagonists of the orexin 1 receptor (OX1R; HCRTR1). [Related pubchem assays (depositor defined):AID434989, AID435008, AID463079, AID485270, AID492963, AID492964, AID492965, AID493232, AID504717, AID504718]. In general terms: TR-FRET usually uses a lanthanide donor and a delayed reading to cut background.

Assay [6] deals with Macrophage colony-stimulating factor 1 receptor (Homo sapiens, UniProt P07333).
Assay [7] deals with Tyrosine-protein kinase Fyn (Homo sapiens, UniProt P06241).
Assay [8] deals with Tyrosine-protein kinase ABL1 (Homo sapiens, UniProt P00519).
Assay [9] addresses Mast/stem cell growth factor receptor Kit (Homo sapiens, UniProt P10721).
Assay [10] deals with Tyrosine-protein kinase Lyn (Homo sapiens, UniProt P07948).
Assay [11] concerns the target Receptor-type tyrosine-protein kinase FLT3 (Homo sapiens, UniProt P36888).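 Further: FLT3 was tested as one member of a kinome-wide kinase panel.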
Assay [12] has as its target Tyrosine-protein kinase Blk (Homo sapiens, UniProt P51451).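 Further: obtained as one member of a kinome-wide kinase assay panel.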
For assay [13], the target named is Proto-oncogene tyrosine-protein kinase Src (Homo sapiens, UniProt P12931).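 Further: SRC entry within a kinome-wide kinase profiling panel.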
The target of assay [14] is Vascular endothelial growth factor receptor 1 (Homo sapiens, UniProt P17948).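 Further: measured within a kinome-wide profiling panel, FLT1 as the panel member.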
Assay [15] concerns the target Vascular endothelial growth factor receptor 3 (Homo sapiens, UniProt P35916).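 Further: value from a kinome-wide profiling panel, with FLT4 as the panel member.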
In assay [16] the target is Vascular endothelial growth factor receptor 2 (Homo sapiens, UniProt P35968).
Assay [17] concerns the target Tyrosine-protein kinase Lck (Homo sapiens, UniProt P06239).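 Further: lck was assayed as one member of a kinase panel.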
The target in assay [18] is T3, Sentrin-specific protease 7 (Homo sapiens, UniProt Q9BQF6).
T3 sequence (Q9BQF6 whole entry): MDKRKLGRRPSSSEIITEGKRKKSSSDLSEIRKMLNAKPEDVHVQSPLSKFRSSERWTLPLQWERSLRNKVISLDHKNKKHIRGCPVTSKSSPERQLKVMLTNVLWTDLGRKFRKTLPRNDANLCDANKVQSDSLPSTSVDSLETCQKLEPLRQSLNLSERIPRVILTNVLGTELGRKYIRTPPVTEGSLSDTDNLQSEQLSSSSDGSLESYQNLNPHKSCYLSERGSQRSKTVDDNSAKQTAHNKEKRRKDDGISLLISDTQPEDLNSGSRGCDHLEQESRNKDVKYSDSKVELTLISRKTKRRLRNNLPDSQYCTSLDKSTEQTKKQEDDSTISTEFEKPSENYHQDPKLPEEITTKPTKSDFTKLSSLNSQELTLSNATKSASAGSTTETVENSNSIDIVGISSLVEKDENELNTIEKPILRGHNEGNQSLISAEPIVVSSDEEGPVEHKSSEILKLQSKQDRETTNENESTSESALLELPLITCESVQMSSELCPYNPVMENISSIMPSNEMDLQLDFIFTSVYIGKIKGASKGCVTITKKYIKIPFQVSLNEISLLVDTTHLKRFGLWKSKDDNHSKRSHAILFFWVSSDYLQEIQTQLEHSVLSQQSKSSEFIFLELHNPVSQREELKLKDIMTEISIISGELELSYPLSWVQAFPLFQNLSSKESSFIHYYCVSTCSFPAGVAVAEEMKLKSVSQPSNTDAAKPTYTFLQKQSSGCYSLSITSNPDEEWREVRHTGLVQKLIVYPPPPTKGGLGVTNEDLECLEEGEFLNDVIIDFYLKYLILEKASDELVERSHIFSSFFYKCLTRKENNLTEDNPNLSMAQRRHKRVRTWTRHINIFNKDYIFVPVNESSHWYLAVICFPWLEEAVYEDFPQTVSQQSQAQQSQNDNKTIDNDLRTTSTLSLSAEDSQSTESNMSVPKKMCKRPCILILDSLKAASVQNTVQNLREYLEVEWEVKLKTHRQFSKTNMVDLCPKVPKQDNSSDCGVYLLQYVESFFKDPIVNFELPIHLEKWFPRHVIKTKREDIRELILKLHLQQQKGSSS
Put plainly: inhibition of human SENP7 cleavage activity – biochemical, luminescence, SAR follow-up (AID 504497).

Assay [19] addresses T4, Sentrin-specific protease 6 (Homo sapiens, UniProt Q9GZR1).
T4 sequence (Q9GZR1 whole entry): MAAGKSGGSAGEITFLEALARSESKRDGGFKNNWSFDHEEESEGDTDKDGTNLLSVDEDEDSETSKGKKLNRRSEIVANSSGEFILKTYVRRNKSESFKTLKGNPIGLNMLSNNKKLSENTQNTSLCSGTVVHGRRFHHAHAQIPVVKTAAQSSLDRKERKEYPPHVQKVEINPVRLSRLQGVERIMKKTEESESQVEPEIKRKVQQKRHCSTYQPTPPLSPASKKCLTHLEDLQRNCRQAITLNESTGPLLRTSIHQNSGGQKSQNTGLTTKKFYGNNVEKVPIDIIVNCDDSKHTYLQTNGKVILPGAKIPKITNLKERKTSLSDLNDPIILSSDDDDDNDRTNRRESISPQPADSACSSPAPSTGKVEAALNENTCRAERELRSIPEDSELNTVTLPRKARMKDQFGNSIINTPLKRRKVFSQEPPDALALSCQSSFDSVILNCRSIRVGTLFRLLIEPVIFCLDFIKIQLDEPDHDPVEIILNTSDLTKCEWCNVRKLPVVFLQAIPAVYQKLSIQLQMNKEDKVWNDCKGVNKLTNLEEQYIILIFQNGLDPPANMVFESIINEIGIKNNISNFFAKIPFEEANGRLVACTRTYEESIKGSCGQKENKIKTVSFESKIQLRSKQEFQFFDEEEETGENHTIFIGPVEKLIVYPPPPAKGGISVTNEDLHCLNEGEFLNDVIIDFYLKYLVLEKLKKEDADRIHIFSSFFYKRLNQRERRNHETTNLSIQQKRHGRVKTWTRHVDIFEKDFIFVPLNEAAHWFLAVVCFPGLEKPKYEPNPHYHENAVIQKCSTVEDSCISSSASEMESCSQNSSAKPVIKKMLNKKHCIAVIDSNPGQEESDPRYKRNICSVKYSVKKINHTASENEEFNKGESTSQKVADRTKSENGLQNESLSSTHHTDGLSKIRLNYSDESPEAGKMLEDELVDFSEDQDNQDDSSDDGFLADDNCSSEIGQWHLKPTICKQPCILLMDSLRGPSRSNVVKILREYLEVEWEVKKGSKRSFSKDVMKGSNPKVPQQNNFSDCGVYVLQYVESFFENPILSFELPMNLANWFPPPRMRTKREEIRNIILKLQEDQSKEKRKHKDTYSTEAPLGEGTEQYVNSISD
The assay can be described thus: SAR Analysis of small molecule inhibitors of Sentrin-specific protease 6 (SENP6) using a Luminescent assay. [Related pubchem assays (depositor defined):AID2582, AID2599].

Assay [20] has as its target T5, Sentrin-specific protease 8 (Homo sapiens, UniProt Q96LD8).
T5 sequence (Q96LD8 whole entry): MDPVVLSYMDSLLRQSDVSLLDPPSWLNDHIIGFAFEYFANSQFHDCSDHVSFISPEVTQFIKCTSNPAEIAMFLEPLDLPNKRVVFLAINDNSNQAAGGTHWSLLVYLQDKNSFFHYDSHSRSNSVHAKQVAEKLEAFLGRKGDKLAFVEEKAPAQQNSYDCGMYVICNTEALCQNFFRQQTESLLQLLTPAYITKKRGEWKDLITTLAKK
Put plainly: inhibition of human SENP8 cleavage activity – biochemical, luminescence, SAR follow-up (AID 504501).

The next assay deals with T6, Caspase-3 (Homo sapiens, UniProt P42574).
T6 sequence (P42574 whole entry): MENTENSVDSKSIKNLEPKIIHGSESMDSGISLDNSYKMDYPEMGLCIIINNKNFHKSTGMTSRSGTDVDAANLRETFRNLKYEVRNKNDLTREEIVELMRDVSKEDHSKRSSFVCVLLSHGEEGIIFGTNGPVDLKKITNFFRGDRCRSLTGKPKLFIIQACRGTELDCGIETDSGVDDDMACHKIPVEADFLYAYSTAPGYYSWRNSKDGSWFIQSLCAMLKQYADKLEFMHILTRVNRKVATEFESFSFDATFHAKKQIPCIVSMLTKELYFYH
The assay can be described thus: SAR Analysis of small molecule inhibitors of Sentrin-specific proteases (SENPs) using a Caspase-3 Selectivity assay. [Related pubchem assays (depositor defined):AID2540, AID2599, AID434973, AID489001].

Activity calls are given as the source filed them.

Chain of Tyrosine-protein kinase Fyn (P06241 whole entry): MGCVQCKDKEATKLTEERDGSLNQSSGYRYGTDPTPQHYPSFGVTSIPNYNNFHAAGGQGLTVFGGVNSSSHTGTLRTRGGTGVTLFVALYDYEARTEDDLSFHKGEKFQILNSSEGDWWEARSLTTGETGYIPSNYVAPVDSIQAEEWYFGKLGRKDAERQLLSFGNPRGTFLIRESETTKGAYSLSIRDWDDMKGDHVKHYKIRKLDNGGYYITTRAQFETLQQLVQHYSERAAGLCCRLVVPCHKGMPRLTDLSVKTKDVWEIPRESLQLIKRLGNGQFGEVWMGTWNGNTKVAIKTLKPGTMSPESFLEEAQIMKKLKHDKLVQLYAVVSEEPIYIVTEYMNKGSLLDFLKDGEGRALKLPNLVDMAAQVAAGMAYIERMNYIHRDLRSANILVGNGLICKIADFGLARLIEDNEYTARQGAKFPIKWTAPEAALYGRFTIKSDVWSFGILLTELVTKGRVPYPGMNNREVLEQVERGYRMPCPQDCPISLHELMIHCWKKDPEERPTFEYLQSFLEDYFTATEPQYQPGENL
Chain of Vascular endothelial growth factor receptor 2 (P35968 whole entry): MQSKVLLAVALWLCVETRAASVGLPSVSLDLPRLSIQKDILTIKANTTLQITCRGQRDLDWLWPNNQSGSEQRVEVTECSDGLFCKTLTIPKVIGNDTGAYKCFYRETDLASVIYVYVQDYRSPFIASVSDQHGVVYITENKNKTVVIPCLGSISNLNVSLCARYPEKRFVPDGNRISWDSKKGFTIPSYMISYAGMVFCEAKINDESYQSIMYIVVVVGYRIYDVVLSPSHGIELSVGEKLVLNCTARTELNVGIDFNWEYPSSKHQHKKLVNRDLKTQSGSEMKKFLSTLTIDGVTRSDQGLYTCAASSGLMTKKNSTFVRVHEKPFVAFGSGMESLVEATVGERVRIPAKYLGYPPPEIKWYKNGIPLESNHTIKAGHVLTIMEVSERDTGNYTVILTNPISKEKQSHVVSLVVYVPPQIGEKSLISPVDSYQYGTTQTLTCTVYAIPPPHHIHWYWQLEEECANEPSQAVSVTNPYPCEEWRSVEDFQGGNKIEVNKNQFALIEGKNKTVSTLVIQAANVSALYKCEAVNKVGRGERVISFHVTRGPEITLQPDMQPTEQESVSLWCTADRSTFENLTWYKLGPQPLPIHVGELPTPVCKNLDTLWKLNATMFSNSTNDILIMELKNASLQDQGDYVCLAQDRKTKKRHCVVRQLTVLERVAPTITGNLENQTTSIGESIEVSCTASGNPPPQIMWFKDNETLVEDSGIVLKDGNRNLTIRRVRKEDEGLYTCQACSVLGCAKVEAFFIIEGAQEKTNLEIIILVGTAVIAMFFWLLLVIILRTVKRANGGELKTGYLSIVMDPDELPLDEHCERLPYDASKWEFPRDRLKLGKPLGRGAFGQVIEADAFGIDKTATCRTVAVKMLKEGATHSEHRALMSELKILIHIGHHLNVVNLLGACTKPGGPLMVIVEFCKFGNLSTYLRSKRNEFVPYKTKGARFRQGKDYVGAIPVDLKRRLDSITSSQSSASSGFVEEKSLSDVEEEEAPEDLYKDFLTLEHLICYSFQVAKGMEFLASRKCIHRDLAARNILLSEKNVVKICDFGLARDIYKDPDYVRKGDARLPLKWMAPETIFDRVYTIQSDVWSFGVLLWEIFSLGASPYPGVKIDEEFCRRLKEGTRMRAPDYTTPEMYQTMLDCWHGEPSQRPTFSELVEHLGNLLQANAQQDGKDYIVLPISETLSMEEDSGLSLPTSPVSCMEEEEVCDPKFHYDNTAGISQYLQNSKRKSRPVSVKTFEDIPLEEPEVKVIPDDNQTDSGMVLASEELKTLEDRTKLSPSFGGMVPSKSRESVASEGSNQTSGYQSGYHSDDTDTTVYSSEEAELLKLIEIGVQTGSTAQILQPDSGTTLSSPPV
Chain of Mast/stem cell growth factor receptor Kit (P10721 whole entry): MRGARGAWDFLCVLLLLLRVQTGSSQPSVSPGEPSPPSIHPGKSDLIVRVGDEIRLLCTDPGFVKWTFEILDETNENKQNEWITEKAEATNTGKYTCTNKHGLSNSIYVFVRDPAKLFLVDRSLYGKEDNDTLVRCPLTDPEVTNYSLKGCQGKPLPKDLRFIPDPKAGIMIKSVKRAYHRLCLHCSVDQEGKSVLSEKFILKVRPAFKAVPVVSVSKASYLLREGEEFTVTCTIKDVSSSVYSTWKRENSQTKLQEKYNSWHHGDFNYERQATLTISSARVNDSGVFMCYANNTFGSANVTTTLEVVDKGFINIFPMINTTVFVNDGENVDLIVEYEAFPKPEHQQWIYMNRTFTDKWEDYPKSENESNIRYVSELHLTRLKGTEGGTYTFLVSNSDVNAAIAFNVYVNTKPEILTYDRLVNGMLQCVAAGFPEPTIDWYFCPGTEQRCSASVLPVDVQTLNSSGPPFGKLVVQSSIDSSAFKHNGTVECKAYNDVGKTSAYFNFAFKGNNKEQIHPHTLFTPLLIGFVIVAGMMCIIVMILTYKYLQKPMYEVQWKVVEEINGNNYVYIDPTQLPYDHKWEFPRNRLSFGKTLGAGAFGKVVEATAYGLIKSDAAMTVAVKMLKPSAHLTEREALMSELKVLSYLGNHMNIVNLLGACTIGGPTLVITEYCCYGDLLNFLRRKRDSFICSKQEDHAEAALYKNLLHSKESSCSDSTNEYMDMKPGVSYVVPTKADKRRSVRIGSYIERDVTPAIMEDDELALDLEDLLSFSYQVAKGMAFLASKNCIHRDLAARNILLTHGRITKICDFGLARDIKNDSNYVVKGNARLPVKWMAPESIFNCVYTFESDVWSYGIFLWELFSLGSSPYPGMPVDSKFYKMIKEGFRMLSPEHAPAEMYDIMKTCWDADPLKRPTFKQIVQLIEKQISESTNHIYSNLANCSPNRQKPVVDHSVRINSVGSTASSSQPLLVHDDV
Chain of Proto-oncogene tyrosine-protein kinase Src (P12931 2-536 limits assumed): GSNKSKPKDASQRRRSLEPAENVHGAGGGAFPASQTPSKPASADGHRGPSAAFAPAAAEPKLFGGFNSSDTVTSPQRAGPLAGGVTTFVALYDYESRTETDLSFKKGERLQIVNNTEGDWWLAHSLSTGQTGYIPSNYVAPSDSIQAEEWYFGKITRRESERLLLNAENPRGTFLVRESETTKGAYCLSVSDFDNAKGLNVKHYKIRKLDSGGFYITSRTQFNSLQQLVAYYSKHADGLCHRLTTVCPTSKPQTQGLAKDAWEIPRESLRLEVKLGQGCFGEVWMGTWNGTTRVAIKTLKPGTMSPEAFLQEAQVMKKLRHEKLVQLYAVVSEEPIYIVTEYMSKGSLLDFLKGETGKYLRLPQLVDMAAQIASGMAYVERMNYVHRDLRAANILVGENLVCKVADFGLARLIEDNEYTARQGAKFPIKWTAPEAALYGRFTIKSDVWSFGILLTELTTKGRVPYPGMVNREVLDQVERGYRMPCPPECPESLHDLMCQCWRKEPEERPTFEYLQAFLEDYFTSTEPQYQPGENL
Chain of Macrophage colony-stimulating factor 1 receptor (P07333 whole entry): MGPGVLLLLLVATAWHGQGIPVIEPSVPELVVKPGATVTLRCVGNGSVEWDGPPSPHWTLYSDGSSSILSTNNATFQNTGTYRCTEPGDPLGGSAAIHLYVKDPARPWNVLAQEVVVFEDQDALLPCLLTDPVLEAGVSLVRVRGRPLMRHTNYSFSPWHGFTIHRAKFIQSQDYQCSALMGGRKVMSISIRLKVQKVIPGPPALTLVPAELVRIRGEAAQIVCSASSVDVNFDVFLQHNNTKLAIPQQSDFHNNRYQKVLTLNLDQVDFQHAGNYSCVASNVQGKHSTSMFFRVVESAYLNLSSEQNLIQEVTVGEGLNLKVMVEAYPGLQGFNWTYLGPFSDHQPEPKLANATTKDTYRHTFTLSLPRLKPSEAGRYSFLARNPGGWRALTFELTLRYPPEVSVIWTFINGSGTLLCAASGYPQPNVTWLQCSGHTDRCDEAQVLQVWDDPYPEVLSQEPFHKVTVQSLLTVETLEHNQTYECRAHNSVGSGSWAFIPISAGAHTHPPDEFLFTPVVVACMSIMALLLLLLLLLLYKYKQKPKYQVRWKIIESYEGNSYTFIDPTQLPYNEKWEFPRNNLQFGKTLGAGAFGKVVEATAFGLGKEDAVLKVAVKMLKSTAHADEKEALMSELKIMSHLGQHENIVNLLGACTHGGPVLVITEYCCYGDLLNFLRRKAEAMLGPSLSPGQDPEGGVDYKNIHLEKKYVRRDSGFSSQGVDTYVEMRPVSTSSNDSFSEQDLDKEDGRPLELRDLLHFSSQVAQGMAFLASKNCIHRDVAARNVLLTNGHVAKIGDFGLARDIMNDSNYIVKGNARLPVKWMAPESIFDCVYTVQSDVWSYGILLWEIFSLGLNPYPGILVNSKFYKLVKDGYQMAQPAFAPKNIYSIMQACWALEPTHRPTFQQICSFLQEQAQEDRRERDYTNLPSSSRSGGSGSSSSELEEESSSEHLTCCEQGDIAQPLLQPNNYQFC
Chain of Tyrosine-protein kinase Blk (P51451 whole entry): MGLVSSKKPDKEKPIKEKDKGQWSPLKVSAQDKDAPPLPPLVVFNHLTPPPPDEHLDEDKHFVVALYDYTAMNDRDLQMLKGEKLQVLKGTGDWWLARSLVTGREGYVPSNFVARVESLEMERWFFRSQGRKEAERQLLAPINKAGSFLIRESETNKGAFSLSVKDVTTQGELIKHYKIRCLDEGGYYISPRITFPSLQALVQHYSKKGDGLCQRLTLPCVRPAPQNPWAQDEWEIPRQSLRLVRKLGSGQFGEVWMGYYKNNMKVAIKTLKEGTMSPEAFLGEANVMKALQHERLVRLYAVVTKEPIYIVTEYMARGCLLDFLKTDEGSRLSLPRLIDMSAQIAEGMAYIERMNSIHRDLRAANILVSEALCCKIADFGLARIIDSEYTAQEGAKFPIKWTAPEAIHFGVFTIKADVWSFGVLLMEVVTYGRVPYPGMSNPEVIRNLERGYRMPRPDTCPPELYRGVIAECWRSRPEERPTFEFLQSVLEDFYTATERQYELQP

Turning to `COc1ccc2sc(-c3ccc(N(C)C)cc3)c(C#CCO)c2c1`, the IC50 in the assay on CHO-K1 is > 66.2 µM (inactive); in assay [1], 10.3 µM (inactive); on Orexin receptor type 2 [2], 37.4 µM (inactive); on Orexin receptor type 2 [3] it was > 50 µM (inactive); in assay [4], > 49.7 µM (inactive); in assay [5] it was 6.09 µM (active).
With `Cn1nc(N)c2c(-c3ccc(NC(=O)Nc4cccc(C(F)(F)F)c4)cc3)ccnc21`, the Ki is 0.00251 µM (active) in assay [6]; 0.501 µM (active) in [7]; 0.2 µM (active) in [8]; 0.000794 µM (active) in assay [9]; 0.126 µM (active) in assay [10]; 0.00158 µM (active) in assay [11]. The Ki was 0.398 µM (active) in assay [12]; 0.794 µM (active) in assay [13]; 0.000316 µM (active) in assay [14]; 0.00158 µM (active) in assay [15]; 0.000631 µM (active) in assay [16]; 0.316 µM (active) in assay [17].
For the molecule `CN(C)c1ccc(NC(=S)c2ccc3ccccc3n2)cc1`, the IC50 in the assay with CHO-K1 was > 66.3 µM (inactive); in assay [1], 6.04 µM (active); at Orexin receptor type 2 [2] it was > 88.8 µM (inactive); on Orexin receptor type 2 [3], > 50 µM (inactive); in [4] it was > 49.8 µM (inactive); in [5], 2.86 µM (active).
Consider `ON(O)c1ccc(N/N=C/c2c[nH]c3ccccc23)cc1`, for which the IC50 (in assay [18]; in [19]; in assay [20]; on Caspase-3) was > 99 µM (inactive) each time.

The values are drawn from ChEMBL document CHEMBL1201862, “PubChem BioAssay data set” (2004).
